Article PMC5816172 (Proceedings of the National Academy of Sciences of the …, 2018)

System: NLRP3 inflammasome
Test: NLRP3 inflammasome stimulation of J774A.1 macrophages
Type: cell-based, mouse
Settings: J774A.1 (Fig. S7B), ACHP alone

Which “reduction of LPS/nigericin induction of IL-1β” value does the source give for `N#Cc1c(C2CCNCC2)cc(-c2c(O)cccc2OCC2CC2)nc1N` [ACHP, 2-Amino-6-[2-(cyclopropylmethoxy)-6-hydroxyphenyl]-4-(4-piperidinyl)-3-pyridinecarbonitrile, reference compound] here?
Its value is 60%.
